Assay results reported in ChEMBL document CHEMBL4152229, “Synthesis and biological evaluation of 2,6-disubstituted-9H-purine, 2,4-disubstitued-thieno[3,2-d]pyrimidine and -7H-pyrrolo[2,3-d]pyrimidine analogues as novel CHK1 inhibitors” (Eur J Med Chem, 2018).

Columns and labels:
HEK293 = assay: Antiproliferative activity against human HEK293 cells after 72 hrs by MTS assay; assay type: functional; conditions: HEK293, 72 h
HT-29 [1] = assay: Cell cycle arrest in human HT-29 cells assessed as accumulation at G1 phase at 10 uM after 48 hrs by propidium iodide/RNase staining-based flow cytometric analysis (reference value: 62.1%); assay type: functional
HT-29 [2] = assay: Cell cycle arrest in human HT-29 cells assessed as accumulation at S phase at 10 uM after 48 hrs by propidium iodide/RNase staining-based flow cytometric analysis (reference value: 30.9%); assay type: functional
HT-29 [3] = assay: Cell cycle arrest in human HT-29 cells assessed as accumulation at G2 phase at 10 uM after 48 hrs by propidium iodide/RNase staining-based flow cytometric analysis (reference value: 7.0%); assay type: functional
[4] = target: T1, Serine/threonine-protein kinase Chk1 (Homo sapiens) (UniProt O14757); assay: Inhibition of DNA-tagged CHK1 (unknown origin) expressed in HEK293 cells at 10 uM after 1 hr by real-time fluorescent quantitative PCR analysis; assay type: cell-based
T1 sequence (whole entry): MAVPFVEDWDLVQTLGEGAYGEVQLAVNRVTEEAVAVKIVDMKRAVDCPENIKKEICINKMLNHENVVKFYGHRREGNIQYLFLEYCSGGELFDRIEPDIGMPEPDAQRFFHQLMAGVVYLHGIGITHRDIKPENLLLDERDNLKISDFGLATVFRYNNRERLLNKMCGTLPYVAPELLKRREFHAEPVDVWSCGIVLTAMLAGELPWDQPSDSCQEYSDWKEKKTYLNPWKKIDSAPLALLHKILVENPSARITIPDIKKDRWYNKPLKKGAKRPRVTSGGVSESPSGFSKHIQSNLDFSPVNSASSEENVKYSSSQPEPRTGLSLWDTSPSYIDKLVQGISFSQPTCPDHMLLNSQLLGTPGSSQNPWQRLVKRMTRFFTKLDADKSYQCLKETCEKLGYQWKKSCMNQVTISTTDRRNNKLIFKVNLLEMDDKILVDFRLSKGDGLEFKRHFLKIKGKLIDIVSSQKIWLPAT

[5] = target: Serine/threonine-protein kinase Chk2 (Homo sapiens) (UniProt O96017); assay: Inhibition of DNA-tagged CHK2 (unknown origin) expressed in HEK293 cells at 10 uM after 1 hr by real-time fluorescent quantitative PCR analysis; assay type: cell-based
[6] = target: T2, Calcium/calmodulin-dependent protein kinase type IV (Homo sapiens) (UniProt Q16566); assay: Inhibition of DNA-tagged CAMK4 (unknown origin) expressed in HEK293 cells at 10 uM after 1 hr by real-time fluorescent quantitative PCR analysis; assay type: cell-based
T2 sequence (whole entry): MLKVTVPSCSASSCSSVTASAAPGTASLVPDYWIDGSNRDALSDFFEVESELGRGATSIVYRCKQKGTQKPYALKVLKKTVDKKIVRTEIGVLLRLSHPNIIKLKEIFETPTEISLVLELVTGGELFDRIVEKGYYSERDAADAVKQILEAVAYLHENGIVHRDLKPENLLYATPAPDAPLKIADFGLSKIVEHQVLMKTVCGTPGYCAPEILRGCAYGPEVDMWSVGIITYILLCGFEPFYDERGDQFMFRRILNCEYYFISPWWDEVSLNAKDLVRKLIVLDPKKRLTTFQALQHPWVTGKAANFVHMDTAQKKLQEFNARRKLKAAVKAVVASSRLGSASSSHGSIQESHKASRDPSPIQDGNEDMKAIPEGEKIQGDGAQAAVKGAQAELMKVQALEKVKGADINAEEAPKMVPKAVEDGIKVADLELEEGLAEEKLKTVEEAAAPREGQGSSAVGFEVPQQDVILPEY

[7] = target: MAP kinase-activated protein kinase 2 (Homo sapiens) (UniProt P49137); assay: Inhibition of DNA-tagged MAPKAPK2 (unknown origin) expressed in HEK293 cells at 10 uM after 1 hr by real-time fluorescent quantitative PCR analysis; assay type: cell-based
[8] = target: cAMP-dependent protein kinase catalytic subunit alpha (Homo sapiens) (UniProt P17612); assay: Inhibition of DNA-tagged PKACalpha (unknown origin) expressed in HEK293 cells at 10 uM after 1 hr by real-time fluorescent quantitative PCR analysis; assay type: cell-based
[9] = target: Cyclin-dependent kinase 2 (Homo sapiens) (UniProt P24941); assay: Inhibition of DNA-tagged CDK2 (unknown origin) expressed in HEK293 cells at 10 uM after 1 hr by real-time fluorescent quantitative PCR analysis; assay type: cell-based
[10] = target: Mitogen-activated protein kinase 1 (Homo sapiens) (UniProt P28482); assay: Inhibition of DNA-tagged MAPK1 (unknown origin) expressed in HEK293 cells at 10 uM after 1 hr by real-time fluorescent quantitative PCR analysis; assay type: cell-based
[11] = target: Glycogen synthase kinase-3 beta (Homo sapiens) (UniProt P49841); assay: Inhibition of DNA-tagged GSK3beta (unknown origin) expressed in HEK293 cells at 10 uM after 1 hr by real-time fluorescent quantitative PCR analysis; assay type: cell-based
HT-29 [12] = assay: cells; conditions: Homo sapiens, HT-29, 72 h
Description: Antiproliferative activity against human HT-29 cells after 72 hrs by MTS assay

Chain of Glycogen synthase kinase-3 beta (Homo sapiens) (P49841 whole entry, looked up): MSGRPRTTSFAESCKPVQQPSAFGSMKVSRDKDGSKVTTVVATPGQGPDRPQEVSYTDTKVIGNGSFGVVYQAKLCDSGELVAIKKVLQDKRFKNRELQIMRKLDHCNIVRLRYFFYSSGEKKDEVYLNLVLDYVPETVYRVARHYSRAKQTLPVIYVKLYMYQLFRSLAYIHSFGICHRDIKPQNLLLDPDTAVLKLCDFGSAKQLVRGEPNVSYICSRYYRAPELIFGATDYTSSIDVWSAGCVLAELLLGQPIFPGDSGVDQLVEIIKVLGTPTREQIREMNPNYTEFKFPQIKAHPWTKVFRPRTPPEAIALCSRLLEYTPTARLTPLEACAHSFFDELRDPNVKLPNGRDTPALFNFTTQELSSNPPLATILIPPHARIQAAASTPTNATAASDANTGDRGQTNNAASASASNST
Chain of Mitogen-activated protein kinase 1 (Homo sapiens) (P28482 whole entry): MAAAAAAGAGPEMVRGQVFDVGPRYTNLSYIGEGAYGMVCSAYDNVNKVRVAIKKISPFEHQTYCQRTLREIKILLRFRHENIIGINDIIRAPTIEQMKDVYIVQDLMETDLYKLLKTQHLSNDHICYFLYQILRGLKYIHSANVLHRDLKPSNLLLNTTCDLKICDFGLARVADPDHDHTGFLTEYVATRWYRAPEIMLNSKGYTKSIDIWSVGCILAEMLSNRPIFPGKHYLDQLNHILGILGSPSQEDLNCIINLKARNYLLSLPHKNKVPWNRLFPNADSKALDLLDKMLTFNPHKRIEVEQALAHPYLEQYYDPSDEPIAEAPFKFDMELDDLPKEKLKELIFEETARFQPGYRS
Chain of Serine/threonine-protein kinase Chk2 (Homo sapiens) (O96017 whole entry): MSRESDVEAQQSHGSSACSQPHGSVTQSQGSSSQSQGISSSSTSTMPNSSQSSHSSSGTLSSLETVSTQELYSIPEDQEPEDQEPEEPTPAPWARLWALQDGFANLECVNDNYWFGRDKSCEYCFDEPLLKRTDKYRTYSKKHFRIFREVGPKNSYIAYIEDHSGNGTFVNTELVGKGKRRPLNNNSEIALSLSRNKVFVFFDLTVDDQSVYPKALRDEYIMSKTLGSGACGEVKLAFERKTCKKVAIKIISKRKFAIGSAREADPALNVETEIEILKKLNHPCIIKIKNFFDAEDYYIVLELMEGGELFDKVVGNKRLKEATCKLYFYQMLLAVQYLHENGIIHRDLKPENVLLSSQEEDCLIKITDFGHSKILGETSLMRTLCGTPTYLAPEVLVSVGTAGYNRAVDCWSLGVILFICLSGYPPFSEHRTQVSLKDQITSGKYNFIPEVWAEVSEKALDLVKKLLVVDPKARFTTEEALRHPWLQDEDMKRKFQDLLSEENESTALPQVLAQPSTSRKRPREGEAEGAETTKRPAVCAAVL
Chain of MAP kinase-activated protein kinase 2 (Homo sapiens) (P49137 whole entry, looked up): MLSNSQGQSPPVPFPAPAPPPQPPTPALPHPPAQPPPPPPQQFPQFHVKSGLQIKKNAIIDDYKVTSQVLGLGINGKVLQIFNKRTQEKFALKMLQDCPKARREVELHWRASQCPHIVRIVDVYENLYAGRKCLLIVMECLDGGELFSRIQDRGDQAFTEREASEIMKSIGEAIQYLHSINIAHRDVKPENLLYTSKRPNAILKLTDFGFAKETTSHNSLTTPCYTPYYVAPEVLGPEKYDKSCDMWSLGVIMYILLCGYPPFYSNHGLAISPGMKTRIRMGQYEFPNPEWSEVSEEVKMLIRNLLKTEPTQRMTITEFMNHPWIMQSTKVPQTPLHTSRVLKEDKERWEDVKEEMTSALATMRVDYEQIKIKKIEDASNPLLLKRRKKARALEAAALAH

**Q.** How did the GI50 (HEK293) turn out when `Fc1ccc(Nc2nc(N3CCOCC3)c3nc[nH]c3n2)cc1` was run?
**A.** The GI50 was > 100 µM.

**Q.** What about the Activity (HT-29 [1]) of the same compound?
**A.** The Activity was 60%.

**Q.** What about the Activity (HT-29 [2]) of the same compound?
**A.** The Activity was 29.5%.

**Q.** And the Activity (HT-29 [3])?
**A.** Its Activity is 10.5%.

**Q.** What about the inhibition [4] of the same compound?
**A.** Its inhibition is 89.9%.

**Q.** And the inhibition [5]?
**A.** The inhibition was 72%.

**Q.** What about the inhibition [6] of the same compound?
**A.** The inhibition was 0%.

**Q.** And the inhibition [7]?
**A.** Its inhibition is 18%.

**Q.** What about the inhibition [8] of the same compound?
**A.** The inhibition was 0%.

**Q.** What about the inhibition [9] of the same compound?
**A.** The inhibition was 73%.

**Q.** What about the inhibition [10] of the same compound?
**A.** Its inhibition is 33%.

**Q.** And the inhibition [11]?
**A.** The inhibition was 47%.

**Q.** What about the GI50 (HT-29 [12]) of the same compound?
**A.** Its GI50 is > 100 µM.
